Blank lines part the entries; values can stand above or below the substance they belong to.
Key:
[1] = tested on: GFP-14-3-3β and its binding proteins; assay: GFP-14-3-3β co-IP with LC-MS/MS label-free quantification, untreated versus PP1c-treated; set-up: species or system human
Experimental: (§1) HeLa Kyoto cells expressing transiently transfected pEGFP(C1)-14-3-3β or pEGFP(C1) control plasmid, were incubated with 20 nM Calyculin A (# 9902 S, Cell Signaling Technology) for 12 min. Cells were washed twice on ice with cold PBS and after addition of 500 µL lysis buffer (100 mM NaCl, 10 mM Tris, 0.1% IGEPAL, 1 mM EDTA, 1 mM EGTA, 20 nM Calyculin A, 1x cOmplete Mini protease inhibitor cocktail (Sigma), 1 mM DTT, 1 mM MnCl2) cells were scraped from plates, lysed by 10 pushes through an injection needle (21 G, BD) and the insoluble fraction was pelleted by centrifugation (10 min, 10^4 rcf, 4 °C). Supernatants were then subjected to incubation with 1 µM recombinant phosphatase or buffer for 1 h at 30 °C. Next, we subjected samples to immunoprecipitation using α-GFP nanobodies covalently coupled to agarose beads (2 h, 4 °C, obtained from the EMBL PEPcore Core Facility). Beads were then washed three times with lysis buffer and samples were eluted in 1x LDS sample buffer (Thermo Fisher Scientific) by heating to 70 °C for 10 min.
(§2) The samples were then reduced with 25 mM dithiothreitol (10 min at 70 °C) and alkylated with 55 mM chloroacetamide (room temperature, 30 min, in the dark). Proteins were run on a precast 4–12% NuPAGE gel (ThermoFisher Scientific) for about 1 cm to concentrate the sample prior to in-gel tryptic digestion, which was performed according to the standard procedures. The peptides obtained were dried to completeness and resuspended in 12 µL of buffer A (0.1% FA), and 5 µL of sample were injected per MS measurement. The experiment was carried out in three independent replicates.
(§3) The samples were analyzed by LC-MS/MS on a Dionex Ultimate 3000 nano-HPLC coupled online to a Fusion Lumos Tribrid mass spectrometer (Thermo Fisher Scientific). Peptides were delivered to a trap column (75 µm × 2 cm, packed in-house with 5 µm C18 resin; Reprosil PUR AQ, Dr. Maisch) and washed using 0.1% FA at a flow rate of 5 µL/min for 10 min. Subsequently, peptides were transferred to an analytical column (75 µm × 45 cm, packed in-house with 3 µm C18 resin; Reprosil Gold) applying a flow rate of 300 nL/min and separated using a 60 min linear gradient from 4% to 32% LC solvent B (0.1% FA, 5% DMSO in ACN) in LC solvent A (0.1% FA in 5% DMSO). The eluate from the analytical column was sprayed via a stainless steel emitter (Thermo Fisher Scientific) at a source voltage of 2.1 kV into the mass spectrometer. The transfer capillary was heated to 275 °C. The Fusion Lumos was operated in positive ionization mode and data-dependent acquisition (DDA), automatically switching between MS1 and MS2 spectrum acquisition. Full scan MS1 spectra were recorded in the Orbitrap from 360 to 1300 m/z at a resolution of 60k (automatic gain control (AGC) target value of 4e5 charges, maximum injection time (maxIT) of 50 ms). Up to 20 peptide precursors were isolated (isolation window, 1.7 m/z; maximum injection time, 25 ms; and AGC value, 1e5), fragmented by high-energy collision-induced dissociation (HCD) using 30% normalized collision energy (NCE), and analyzed at a resolution of 15k in the Orbitrap. Precursor ions that were singly charged, unassigned, or with charge states >6+ were excluded. The dynamic exclusion duration of fragmented precursor ions was 20 s.
(§4) Peptide and protein identification and LFQ were performed using MaxQuant software (version 1.6.1.0)[64] by searching the data against all canonical protein sequences as annotated in the Swissprot reference database (human proteins only, 20193 entries, downloaded 22 March 2016, internally annotated with PFAM domains) using the embedded search engine Andromeda[65]. The MaxQuant search was performed using two variable modifications; oxidation of methionine and N-terminal protein acetylation. Carbamidomethylation on cysteines was specified as a fixed modification. Trypsin (Trypsin/P) was specified as the proteolytic enzyme with up to two allowed missed cleavage sites.

[2] = tested on: GFP-14-3-3β; assay: GFP-14-3-3β co-IP with LC-MS/MS, untreated GFP-14-3-3β versus GFP control (14-3-3 interactome); assay type: binding, human
Experimental: as §1, §2, §3, §4

[3] = pairwise comparison PP1 vs untreated, student's t-test, 3 replicates each, LC-MS/MS label-free quantification
[4] = pairwise comparison untreated GFP-14-3-3β vs GFP, student's t-test, 3 replicates each, LC-MS/MS label-free quantification
[5] = PP1 vs untreated, LFQ intensities, replicates 1-3
[6] = untreated vs GFP, LFQ intensities, replicates 1-3
[7] = log2 difference, pairwise comparison PP1 vs untreated, label-free quantification, 3 replicates each
[8] = log2 difference, pairwise comparison untreated vs GFP, label-free quantification, 3 replicates each
[9] = pairwise comparison PP1 vs untreated
[10] = pairwise comparison untreated vs GFP
[11] = PP1 vs untreated, label-free quantification
[12] = untreated vs GFP, label-free quantification
[13] = GFP-14-3-3β co-IP LC-MS/MS, PP1 vs untreated, student's t-test, label-free quantification, 3 replicates each
[14] = GFP-14-3-3β co-IP LC-MS/MS, untreated vs GFP, student's t-test, label-free quantification, 3 replicates each
[15] = PP1 vs untreated, LFQ intensities, 3 replicates each
[16] = untreated vs GFP, LFQ intensities, 3 replicates each

Difference (log2), PP1 vs untreated [1, 3]: -4.455 log2
Substance: DNMBP
Difference (log2), untreated vs GFP [2, 4]: 3.515 log2

Difference (log2), PP1 vs untreated [1, 3]: -5.0278 log2
Substance: DOCK7
Difference (log2), untreated vs GFP [2, 4]: 5.106 log2

Difference (log2), PP1 vs untreated [1, 5]: -1.861 log2
Substance: DOCK11
Difference (log2), untreated vs GFP [2, 6]: 2.579 log2

Difference (log2), PP1 vs untreated [1, 7]: 2.547
Substance: DPYSL3;CRMP1
Difference (log2), untreated vs GFP [2, 8]: -3.981

Difference (log2), PP1 vs untreated [1, 7]: 4.203
Substance: DSP
Difference (log2), untreated vs GFP [2, 8]: -0.252

Difference (log2), PP1 vs untreated [1, 9]: -0.03751 log2
Substance: DTX3L
Difference (log2), untreated vs GFP [2, 10]: 0.3421 log2

Difference (log2), PP1 vs untreated [1, 11]: 0.7684 log2
Substance: DYNC1H1
Difference (log2), untreated vs GFP [2, 12]: 3.605 log2

Difference (log2), PP1 vs untreated [1, 3]: -2.451 log2
Substance: DYNLL1
Difference (log2), untreated vs GFP [2, 4]: 3.684 log2

Difference (log2), PP1 vs untreated [1, 13]: -0.2746 log2
Substance: ECM29
Difference (log2), untreated vs GFP [2, 14]: -0.4278 log2

Difference (log2), PP1 vs untreated [1, 15]: 0.3367 log2
Substance: EEF1G
Difference (log2), untreated vs GFP [2, 16]: -0.3337 log2

Difference (log2), PP1 vs untreated [1, 13]: -0.7202 log2
Substance: EFTUD2
Difference (log2), untreated vs GFP [2, 14]: 2.59 log2

Difference (log2), PP1 vs untreated [1, 9]: 0.2022 log2
Substance: EIF4G1
Difference (log2), untreated vs GFP [2, 10]: 0.6525 log2

Difference (log2), PP1 vs untreated [1, 15]: 0.612 log2
Substance: ELAVL1
Difference (log2), untreated vs GFP [2, 16]: 3.578 log2

Difference (log2), PP1 vs untreated [1, 7]: 1.575
Substance: EMC1
Difference (log2), untreated vs GFP [2, 8]: -0.5374

Difference (log2), PP1 vs untreated [1, 11]: 1.014 log2
Substance: EMD
Difference (log2), untreated vs GFP [2, 12]: -1.504 log2

Difference (log2), PP1 vs untreated [1, 9]: 0.1139 log2
Substance: EPPK1
Difference (log2), untreated vs GFP [2, 10]: 0.5175 log2

Difference (log2), PP1 vs untreated [1, 13]: -0.1517 log2
Substance: EPRS
Difference (log2), untreated vs GFP [2, 14]: -0.2032 log2

Difference (log2), PP1 vs untreated [1, 15]: 0.6235 log2
Substance: FAM98A
Difference (log2), untreated vs GFP [2, 16]: 0.9941 log2

Difference (log2), PP1 vs untreated [1, 15]: 0.3561 log2
Substance: FASN
Difference (log2), untreated vs GFP [2, 16]: 1.462 log2

Difference (log2), PP1 vs untreated [1, 3]: -4.621 log2
Substance: FBXO22
Difference (log2), untreated vs GFP [2, 4]: 0.4281 log2

Difference (log2), PP1 vs untreated [1, 3]: -2.217 log2
Substance: FLNA
Difference (log2), untreated vs GFP [2, 4]: -0.8027 log2

Difference (log2), PP1 vs untreated [1, 3]: -4.747 log2
Substance: FRYL
Difference (log2), untreated vs GFP [2, 4]: 5.1751 log2

Difference (log2), PP1 vs untreated [1, 7]: 2.4595
Substance: FXR1
Difference (log2), untreated vs GFP [2, 8]: -1.238

Difference (log2), PP1 vs untreated [1, 7]: 2.11
Substance: FXR2
Difference (log2), untreated vs GFP [2, 8]: -0.343

Difference (log2), PP1 vs untreated [1, 11]: 0.8257 log2
Substance: FYN
Difference (log2), untreated vs GFP [2, 12]: -1.633 log2

Difference (log2), PP1 vs untreated [1, 11]: 0.9288 log2
Substance: G3BP1
Difference (log2), untreated vs GFP [2, 12]: -0.3554 log2

Difference (log2), PP1 vs untreated [1, 3]: -4.245 log2
Substance: GAPDH
Difference (log2), untreated vs GFP [2, 4]: 0.2696 log2

Difference (log2), PP1 vs untreated [1, 15]: 0.3397 log2
Substance: GCN1L1
Difference (log2), untreated vs GFP [2, 16]: 0.08 log2

Difference (log2), PP1 vs untreated [1, 7]: 1.609
Substance: GEMIN5
Difference (log2), untreated vs GFP [2, 8]: -0.2087

Difference (log2), PP1 vs untreated [1, 5]: -1.974 log2
Substance: GNG12
Difference (log2), untreated vs GFP [2, 6]: -0.9148 log2

Difference (log2), PP1 vs untreated [1, 5]: -1.711 log2
Substance: H2AFY
Difference (log2), untreated vs GFP [2, 6]: 1.914 log2

Difference (log2), PP1 vs untreated [1, 9]: 0.1471 log2
Substance: HDAC2
Difference (log2), untreated vs GFP [2, 10]: 0.5775 log2

Difference (log2), PP1 vs untreated [1, 5]: -1.168 log2
Substance: HEATR1
Difference (log2), untreated vs GFP [2, 6]: 3.268 log2

Difference (log2), PP1 vs untreated [1, 9]: 0.111 log2
Substance: HERC2
Difference (log2), untreated vs GFP [2, 10]: -0.06655 log2

— paper PMC7367873, “Dissecting the sequence determinants for dephosphorylation by the catalytic subunits of phosphatases PP1 and PP2A” (Nature Communications, 2020)
